{
  "source": "ChEMBL document CHEMBL3585242",
  "about": "“Pyridine Nucleosides Neopetrosides A and B from a Marine Neopetrosia sp. Sponge. Synthesis of Neopetroside A and Its β-Riboside Analogue” (J Nat Prod, 2015)",
  "key": {"[1]": {"tested_on": "C2C12", "experiment": "Cytotoxicity against mouse C2C12 cells assessed as cell viability up to 100 uM after 24 hrs by CellTox green assay", "type": "cell-based", "conditions": "c2c12, 24 h"}, "[2]": {"tested_on": "C2C12", "experiment": "Upregulation of mitochondrial function in mouse C2C12 cells assessed as increase in mitochondrial ATP level at 10 uM after 1 hr by ToxGlo assay relative to control", "type": "functional, cell-based"}, "[3]": {"tested_on": "C2C12", "experiment": "Upregulation of mitochondrial function in mouse C2C12 cells assessed as increase in mitochondrial oxygen consumption rate at 10 uM after 1 hr relative to control", "type": "functional, cell-based"}},
  "note": "Activity calls are given as the source filed them. No cut-off for these calls is given here.",
  "data": [
    {"smiles": "O=C([O-])c1ccc[n+]([C@H]2O[C@H](COC(=O)c3ccc(O)cc3)[C@@H](O)[C@H]2O)c1", "values": [
      {"measurement": "Activity", "setting": "[1]", "result": "Non-toxic"},
      {"measurement": "Activity", "setting": "[2]", "result": "Active"},
      {"measurement": "Activity", "setting": "[3]", "result": "Active"}
    ]}
  ]
}
